Data: US10421774B2 (priority 2016, dated 2019)

What was measured:
Test in all cases: microbe, parasite or virus in culture
Assay type in all cases: cell-based, HIV-1
gag V370A/ΔT371 virus = conditions: Human immunodeficiency virus 1, MT2, read-out: V370A/ΔT371 EC50
How it was run: (§1)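 Virus yield quantified by Renilla luciferase after 4–5 day culture at 37°C of MT-2 cells (10,000/well) with 3-fold serially diluted compound at 1% final DMSO. Reporter viruses were NL4-3 P373S derivatives bearing Gag A364V or V370A/ΔT371, inputs matched on luciferase endpoint.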

[1] = tested on: A364V site directed mutant virus; conditions: Human immunodeficiency virus 1, MT2, read-out: A364V EC50
How it was run: as §1

[2] = tested on: T332S/V362I/Pr R41G virus; conditions: Human immunodeficiency virus 1, MT2, read-out: T332S/V362I/pr41G EC50
How it was run: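 Multiple-cycle susceptibility: MT-2 cells, 10,000 per well, exposed to 3-fold compound dilutions at 1% DMSO after infection with luciferase-normalized inoculum. Virus: NL4-3-derived Renilla reporter (Gag P373S) with Gag T332S/V362I and protease R41G. Readout Renilla luciferase after 4–5 days, 37 °C.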

[3] = tested on: NLRepRlucP373S recombinant wild type (WT) virus; conditions: Human immunodeficiency virus 1, MT2, read-out: WT EC50
How it was run: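 Multiple-cycle assay: luciferase-normalized NL4-3-derived NLRepRlucP373S (Renilla luciferase in place of nef) infects MT-2 cells, 10,000 cells/well, with 3-fold compound dilutions at 1% DMSO, 4-5 days, 37 °C. EC50 and EC90 fitted by median effect equation against Renilla luminescence, with residual signal under 3 μM NFV as background.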

With `C=C(C)[C@@H]1CC[C@]2(NC[C@@](C)(O)CO)CC[C@]3(C)[C@H](CC[C@@H]4[C@@]5(C)CC=C(C6=CC[C@](COc7ncccc7C#N)(C(=O)O)CC6)C(C)(C)[C@@H]5CC[C@]43C)[C@@H]12` [Example A13, (R)-1-(((3-cyanopyridin-2-yl)oxy)methyl)-4-((1R,3aS,5aR,5bR,7aR,11aS,11bR,13aR,13bR)-3a-(((R)-2,3-dihydroxy-2-methylpropyl)amino)-5a,5b,8,8,11a-pentamethyl-1-(prop-1-en-2-yl)-2,3,3a,4,5,5a,5b,6,7,7a,8,11,11a,11b,12,13,13a,13b-octadecahydro-1H-cyclopentalalchrysen-9-yl)cyclohex-3-enecarboxylic acid] the EC50 (gag V370A/ΔT371 virus) was 27 nM, the EC50 [1] was 831 nM and the EC50 [2] was 27 nM. The EC50 [3] was 2 nM.
In the case of `C=C(C)[C@@H]1CC[C@]2(NC[C@@](C)(O)CO)CC[C@]3(C)[C@H](CC[C@@H]4[C@@]5(C)CC=C(C6=CC[C@](COc7ncccc7C(N)=O)(C(=O)O)CC6)C(C)(C)[C@@H]5CC[C@]43C)[C@@H]12` [Example A14, (R)-1-(((3-carbamoylpyridin-2-yl)oxy)methyl)-4-((1R,3aS,5aR,5bR,7aR,11aS,11bR,13aR,13bR)-3a-(((R)-2,3-dihydroxy-2-methylpropyl)amino)-5a,5b,8,8,11a-pentamethyl-1-(prop-1-en-2-yl)-2,3,3a,4,5,5a,5b,6,7,7a,8,11,11a,11b,12,13,13a,13b-octadecahydro-1H-cyclopenta[a]chrysen-9-yl)cyclohex-3-enecarboxylic acid], the EC50 (gag V370A/ΔT371 virus) is reported as 110 nM, the EC50 [1] is reported as 114 nM and the EC50 [2] is reported as 110 nM. The EC50 [3] was 5 nM.
For `C=C(C)[C@@H]1CC[C@]2(NC[C@@H](O)C(=O)O)CC[C@]3(C)[C@H](CC[C@@H]4[C@@]5(C)CC=C(C6=CC[C@](COc7ncccc7C#N)(C(=O)O)CC6)C(C)(C)[C@@H]5CC[C@]43C)[C@@H]12` [Example A15, (R)-4-((1R,3aS,5aR,5bR,7aR,11aS,11bR,13aR,13bR)-3a-(((R)-2-carboxy-2-hydroxyethyl)amino)-5a,5b,8,8,11a-pentamethyl-1-(prop-1-en-2-yl)-2,3,3a,4,5,5a,5b,6,7,7a,8,11,11a,11b,12,13,13a,13b-octadecahydro-1H-cyclopenta[a]chrysen-9-yl)-1-(((3-cyanopyridin-2-yl)oxy)methyl)cyclohex-3-enecarboxylic acid], the EC50 (gag V370A/ΔT371 virus) was 10 nM, the EC50 [1] was 794 nM and the EC50 [2] was 10 nM. For the same compound, the EC50 [3] was 3 nM.
Work on `C=C(C)[C@@H]1CC[C@]2(NC[C@@H](O)C(=O)O)CC[C@]3(C)[C@H](CC[C@@H]4[C@@]5(C)CC=C(C6=CC[C@](COc7ncccc7C(=O)O)(C(=O)O)CC6)C(C)(C)[C@@H]5CC[C@]43C)[C@@H]12` [Example A16, 2-(((R)-1-carboxy-4-((1R,3aS,5aR,5bR,7aR,11aS,11bR,13aR,13bR)-3a-(((R)-2-carboxy-2-hydroxyethyl)amino)-5a,5b,8,8,11a-pentamethyl-1-(prop-1-en-2-yl)-2,3,3a,4,5,5a,5b,6,7,7a,8,11,11a,11b,12,13,13a,13b-octadecahydro-1H-cyclopenta[a]chrysen-9-yl)cyclohex-3-en-1-yl)methoxy)nicotinic acid] yielded an EC50 (gag V370A/ΔT371 virus) of 68 nM, an EC50 [1] of 139 nM and an EC50 [2] of 68 nM. It also gave an EC50 [3] of 10 nM.
For `C=C(C)[C@@H]1CC[C@]2(NC[C@H](O)C(=O)O)CC[C@]3(C)[C@H](CC[C@@H]4[C@@]5(C)CC=C(C6=CC[C@](COc7ncccc7C#N)(C(=O)O)CC6)C(C)(C)[C@@H]5CC[C@]43C)[C@@H]12` [Example A17, (R)-4-((1R,3aS,5aR,5bR,7aR,11aS,11bR,13aR,13bR)-3a-(((S)-2-carboxy-2-hydroxyethyl)amino)-5a,5b,8,8,11a-pentamethyl-1-(prop-1-en-2-yl)-2,3,3a,4,5,5a,5b,6,7,7a,8,11,11a,11b,12,13,13a,13b-octadecahydro-1H-cyclopenta[a]chrysen-9-yl)-1-(((3-cyanopyridin-2-yl)oxy)methyl)cyclohex-3-enecarboxylic acid], the EC50 (gag V370A/ΔT371 virus) was 15 nM, the EC50 [1] was 3000 nM and the EC50 [2] was 15 nM. For the same compound, the EC50 [3] was 3 nM.
With `C=C(C)[C@@H]1CC[C@]2(NC[C@H](O)C(=O)O)CC[C@]3(C)[C@H](CC[C@@H]4[C@@]5(C)CC=C(C6=CC[C@](COc7ncccc7C(N)=O)(C(=O)O)CC6)C(C)(C)[C@@H]5CC[C@]43C)[C@@H]12` [Example A18] the EC50 (gag V370A/ΔT371 virus) was 27 nM, the EC50 [1] was 192 nM and the EC50 [2] was 27 nM. It also gave an EC50 [3] of 8 nM.
For `C=C(C)[C@@H]1CC[C@]2(NCC(C)(O)C(=O)O)CC[C@]3(C)[C@H](CC[C@@H]4[C@@]5(C)CC=C(C6=CC[C@](COc7ncccc7C#N)(C(=O)O)CC6)C(C)(C)[C@@H]5CC[C@]43C)[C@@H]12` (stereo partly drawn) [Example A19, (1R)-4-((1R,3aS,5aR,5bR,7aR,11aS,11bR,13aR,13bR)-3a-((2-carboxy-2-hydroxypropyl)amino)-5a,5b,8,8,11a-pentamethyl-1-(prop-1-en-2-yl)-2,3,3a,4,5,5a,5b,6,7,7a,8,11,11a,11b,12,13,13a,13b-octadecahydro-1H-cyclopenta[a]chrysen-9-yl)-1-(((3-cyanopyridin-2-yl)oxy)methyl)cyclohex-3-enecarboxylic acid], the EC50 (gag V370A/ΔT371 virus) was 20 nM, the EC50 [1] was > 50 nM and the EC50 [2] was 20 nM. The EC50 [3] was 3 nM.
With `C=C(C)[C@@H]1CC[C@]2(NCCN3CCS(=O)(=O)CC3)CC[C@]3(C)[C@H](CC[C@@H]4[C@@]5(C)CC=C(C6=CCC(CCOc7ccccn7)(C(=O)O)CC6)C(C)(C)[C@@H]5CC[C@]43C)[C@@H]12` (stereo partly drawn) [Example A20, 4-((1R,3aS,5aR,5bR,7aR,11aS,11bR,13aR,13bR)-3a-((2-(1,1-dioxidothiomorpholino)ethyl)amino)-5a,5b,8,8,11a-pentamethyl-1-(prop-1-en-2-yl)-2,3,3a,4,5,5a,5b,6,7,7a,8,11,11a,11b,12,13,13a,13b-octadecahydro-1H-cyclopenta[a]chrysen-9-yl)-1-(2-(pyridin-2-yloxy)ethyl)cyclohex-3-ene-1-carboxylic acid] the EC50 (gag V370A/ΔT371 virus) was < 50 nM, the EC50 [1] was < 50 nM and the EC50 [2] was < 50 nM. The EC50 [3] was < 50 nM.
Compound `C=C(C)[C@@H]1CC[C@]2(NCCN3CCS(=O)(=O)CC3)CC[C@]3(C)[C@H](CC[C@@H]4[C@@]5(C)CC=C(C6=CCC(CCOc7cc(C)sn7)(C(=O)O)CC6)C(C)(C)[C@@H]5CC[C@]43C)[C@@H]12` (stereo partly drawn) [Example A21, 4-((1R,3aS,5aR,5bR,7aR,11aS,11bR,13aR,13bR)-3a-((2-(1,1-dioxidothiomorpholino)ethyl)amino)-5a,5b,8,8,11a-pentamethyl-1-(prop-1-en-2-yl)-2,3,3a,4,5,5a,5b,6,7,7a,8,11,11a,11b,12,13,13a,13b-octadecahydro-1H-cyclopenta[a]chrysen-9-yl)-1-(2-((5-methylisothiazol-3-yl)oxy)ethyl)cyclohex-3-ene-1-carboxylic acid] has an EC50 (gag V370A/ΔT371 virus) of 18 nM, an EC50 [1] of 17 nM and an EC50 [2] of 18 nM. The EC50 [3] was 3 nM.
Work on `C=C(C)[C@@H]1CC[C@]2(NCCN3CCS(=O)(=O)CC3)CC[C@]3(C)[C@H](CC[C@@H]4[C@@]5(C)CC=C(C6=CCC(CCOc7ncccc7C#N)(C(=O)O)CC6)C(C)(C)[C@@H]5CC[C@]43C)[C@@H]12` (stereo partly drawn) [Example A22, 1-(2-((3-cyanopyridin-2-yl)oxy)ethyl)-4-((1R,3aS,5aR,5bR,7aR,11aS,11bR,13aR,13bR)-3a-((2-(1,1-dioxidothiomorpholino)ethyl)amino)-5a,5b,8,8,11a-pentamethyl-1-(prop-1-en-2-yl)-2,3,3a,4,5,5a,5b,6,7,7a,8,11,11a,11b,12,13,13a,13b-octadecahydro-1H-cyclopenta[a]chrysen-9-yl)cyclohex-3-ene-1-carboxylic acid] yielded an EC50 (gag V370A/ΔT371 virus) of 13 nM, an EC50 [1] of 27 nM and an EC50 [2] of 13 nM. It also gave an EC50 [3] of 4 nM.
For `C=C(C)[C@@H]1CC[C@]2(NCCN3CCS(=O)(=O)CC3)CC[C@]3(C)[C@H](CC[C@@H]4[C@@]5(C)CC=C(C6=CCC(CCOc7cc(C(=O)O)ccn7)(C(=O)O)CC6)C(C)(C)[C@@H]5CC[C@]43C)[C@@H]12` (stereo partly drawn) [Example A23, 2-(2-(1-carboxy-4-((1R,3aS,5aR,5bR,7aR,11aS,11bR,13aR,13bR)-3a-((2-(1,1-dioxidothiomorpholino)ethyl)amino)-5a,5b,8,8,11a-pentamethyl-1-(prop-1-en-2-yl)-2,3,3a,4,5,5a,5b,6,7,7a,8,11,11a,11b,12,13,13a,13b-octadecahydro-1H-cyclopenta[a]chrysen-9-yl)cyclohex-3-en-1-yl)ethoxy)isonicotinic acid], the EC50 (gag V370A/ΔT371 virus) was > 50 nM, the EC50 [1] was 333 nM and the EC50 [2] was 193 nM. The EC50 [3] was 7 nM.
